Experimental data as given in EPA's aquatic toxicity sets.

How the values were obtained:
Pimephales promelas = experiment: 96 h LC50 (-log10 mol/L); higher = more toxic
Daphnia magna = experiment: 48 h LC50 (-log10 mol/L); higher = more toxic
Tetrahymena pyriformis = experiment: 48 h IGC50 (-log10 mol/L); higher = more toxic

Compound | 96 h LC50 (-log10 mol/L) (Pimephales promelas) | 48 h LC50 (-log10 mol/L) (Daphnia magna) | 48 h IGC50 (-log10 mol/L) (Tetrahymena pyriformis)
CC1=CC(=O)c2ccccc2C1=O | 6.2 | 5.54 | 4.54
CCO | 0.534 | 0.59 | 1.01
O=[N+]([O-])c1ccc(O)c([N+](=O)[O-])c1 | 4.22 | 4.61 | 4.06
COc1cccc(O)c1 | 3.22 | 3.48 | 2.67
CC#N | 1.61 | 1.06 | 0.723
COP(=S)(OC)Oc1ccc(SC)c(C)c1 | 4.94 | 6.79 | 
CNc1ccccc1 | 3.03 | 5.79 | 3.06
CCN(CC)C(=O)c1cccc(C)c1 | 3.24 | 3.08 | 
ClC=C(Cl)Cl | 3.47 | 3.48 | 
O=C(O)CNCP(=O)(O)O | 4.57 | 3.91 | 
O=P(O)(O)CCCl | 3.05 | 3.04 | 
Clc1ccc(Cl)c(-c2ccccc2Cl)c1 | 6.88 | 6.67 | 
CNC(=O)O/N=C/C(C)(C)SC | 5.17 | 5.55 | 
ClC(Cl)C(Cl)Cl | 3.92 | 3.46 | 
CCc1ccc(C)nc1 | 3.17 | 3.48 | 2.82
CC1=CC(=O)CC(C)(C)C1 | 2.74 | 3.06 | 
ClC(Cl)(Cl)C(Cl)(Cl)Cl | 5.24 | 4.93 | 
CC(C)CO | 1.7 | 1.82 | 
Cc1ccccc1O | 3.89 | 3.86 | 2.71
CCCCCCCO | 3.51 | 3.23 | 3.1
C=CC#N | 3.57 | 3.78 | 
CC(Cl)CCl (configuration not stated) | 2.93 | 3.34 | 
Oc1ccc2ccccc2c1 | 4.62 | 4.61 | 

Compound | 96 h LC50 (-log10 mol/L) (Pimephales promelas) | 48 h LC50 (-log10 mol/L) (Daphnia magna) | 48 h IGC50 (-log10 mol/L) (Tetrahymena pyriformis)
Cc1ccccc1C | 3.81 | 3.79 | 
O=[N+]([O-])c1ccccc1 | 3.02 | 3.62 | 3.14
NC(=O)c1c(Cl)cccc1Cl | 2.61 | 2.35 | 
CC=O | 3.08 | 0.55 | 
COP(=S)(OC)Oc1ccc([N+](=O)[O-])cc1 | 4.51 | 7.34 | 
Oc1ccccc1 | 3.5 | 3.85 | 2.65
O=C(O)COc1ccc(Cl)cc1Cl | 2.92 | 3.78 | 
Cc1ccc(O)cc1 | 3.67 | 3.71 | 2.84
C=C(C)[C@H]1Cc2c(ccc3c2O[C@@H]2COc4cc(OC)c(OC)cc4[C@@H]2C3=O)O1 | 7.82 | 8.03 | 
CCCCOC(=O)c1ccccc1C(=O)OCc1ccccc1 | 5.22 | 5.19 | 
Nc1ccc(Cl)c(Cl)c1Cl | 4.74 | 5.43 | 4.35
c1ccc2c(c1)-c1cccc3cccc-2c13 | 6.77 | 6.28 | 
c1ccc(C2CO2)cc1 (configuration not stated) | 4 | 4.02 | 
ClC1=C(Cl)[C@]2(Cl)[C@H]3[C@H]([C@H](Cl)[C@]4(Cl)O[C@H]34)[C@@]1(Cl)C2(Cl)Cl | 8.1 | 5.51 | 
CCCCC(CC)COC(=O)c1ccccc1C(=O)OCC(CC)CCCC (configuration not stated) | 2.55 | 4.55 | 
CCOCC | 1.46 | 1.73 | 
CCCCCC | 4.54 | 4.34 | 3.72
c1ccc(Oc2ccccc2)cc1 | 4.63 | 5.43 | 
ClC(Cl)C(Cl)(Cl)Cl | 4.43 | 4.19 | 
Oc1c(Cl)cc(Cl)c(Cl)c1Cl | 5.35 | 6.11 | 
CC(O)CC(C)(C)O (configuration not stated) | 1.04 | 1.22 | 1.05
CCC(O)C(C)CO (configuration not stated) | 1.13 | 1.22 | 
ClCC(Cl)Cl | 3.21 | 3.49 | 

Compound | 96 h LC50 (-log10 mol/L) (Pimephales promelas) | 48 h LC50 (-log10 mol/L) (Daphnia magna) | 48 h IGC50 (-log10 mol/L) (Tetrahymena pyriformis)
Cc1cccc(C)c1 | 3.82 | 3.65 | 
CC(N)=S | 2.44 | 3.64 | 
Cc1ccc([N+](=O)[O-])cc1 | 3.44 | 4.01 | 
CCCN(CCC)c1c([N+](=O)[O-])cc(C(C)C)cc1[N+](=O)[O-] | 5.85 | 7.01 | 
CCCCC(=O)O | 3.12 | 3.36 | 2.73
O=C1C2(Cl)C3(Cl)C4(Cl)C(Cl)(Cl)C5(Cl)C3(Cl)C1(Cl)C5(Cl)C24Cl (configuration not stated) | 6.11 | 6.39 | 
CCOC(=O)CC(SP(=S)(OC)OC)C(=O)OCC (configuration not stated) | 4.42 | 8.35 | 
Clc1ccc(C(c2ccc(Cl)cc2)C(Cl)(Cl)Cl)cc1 | 7.27 | 8.27 | 
C1=CC2C3C=CC(C3)C2C1 (configuration not stated) | 3.41 | 4.1 | 
S=c1[nH]c2ccccc2s1 | 4.18 | 4.49 | 
O=[N+]([O-])c1ccccc1O | 2.94 | 4.02 | 3.67
CC(C)c1ccc2c(c1)CC[C@H]1[C@](C)(C(=O)O)CCC[C@]21C | 4.97 | 4.56 | 
CCOP(=S)(OCC)SCSC(C)(C)C | 6.81 | 8.21 | 
CC(Cl)(Cl)Cl | 3.4 | 3.72 | 
Clc1ccccc1 | 3.65 | 3.92 | 2.87
CCC1(c2ccccc2)C(=O)NC(=O)NC1=O | 2.68 | 2.2 | 
COP(=S)(OC)SCN1C(=O)c2ccccc2C1=O | 4.59 | 5.6 | 
CC1(C)[C@H](C=C2CCCC2)[C@H]1C(=O)OCc1coc(Cc2ccccc2)c1 | 8.57 | 8.16 | 
CCOP(=S)(OCC)SCSCC | 6.02 | 7.13 | 
c1ccc(-c2ccccc2)cc1 | 4.72 | 4.91 | 4.05
COP(=S)(OC)Oc1ccc([N+](=O)[O-])c(C)c1 | 4.81 | 7.67 | 
C=CC=O | 6.32 | 5.99 | 4.89
ClC(Cl)=C(Cl)Cl | 3.96 | 4 | 

Compound | 96 h LC50 (-log10 mol/L) (Pimephales promelas) | 48 h LC50 (-log10 mol/L) (Daphnia magna) | 48 h IGC50 (-log10 mol/L) (Tetrahymena pyriformis)
O=C(Nc1ccc(Cl)cc1)Nc1ccc(Cl)c(Cl)c1 | 6.54 | 7.48 | 
c1ccc2c(c1)[nH]c1ccccc12 | 5.25 | 4.7 | 3.91
CCCCCCCCCc1ccc(O)cc1 | 5.91 | 6.06 | 5.47
CCc1ccccc1 | 3.95 | 4.5 | 
C=Cc1ccccc1 | 3.79 | 3.53 | 2.98
CCN(CC)c1nc(C)cc(OP(=S)(OC)OC)n1 | 5.09 | 9.14 | 
ClCCl | 2.42 | 2.66 | 
CCCO | 1.12 | 0.935 | 1.25
Clc1cccc(Cl)c1 | 4.27 | 4.3 | 3.56
CC(=O)CC(C)=O | 2.85 | 3.32 | 
c1cc2c3c(cccc3c1)CC2 | 4.98 | 3.58 | 
OCCO | 0.037 | 0.122 | 
CCCCOC(=O)c1ccccc1C(=O)OCCCC | 5.37 | 4.88 | 
Nc1c(Cl)c(Cl)nc(C(=O)O)c1Cl | 3.64 | 3.64 | 
OCCOCCOCCO | 0.309 | 0.46 | 
Clc1ccccc1-c1ccccc1 | 4.67 | 5.42 | 
CC(C)[C@H](C(=O)O[C@H](C#N)c1cccc(Oc2ccccc2)c1)c1ccc(Cl)cc1 | 9.26 | 8.58 | 
CNC(=O)ON=C(C)SC | 4.89 | 6.96 | 
C1CO1 | 2.72 | 2.33 | 
COP(=O)(OC)C(O)C(Cl)(Cl)Cl (configuration not stated) | 3.37 | 7.7 | 
O=[N+]([O-])OCC(CO[N+](=O)[O-])O[N+](=O)[O-] | 4.92 | 3.85 | 
CCOP(=S)(OCC)Oc1ccc([N+](=O)[O-])cc1 | 5.32 | 8.15 | 
